Consider four compounds from US6617136B2, “Biological sample processing methods and compositions that include surfactants” (3M Innovative Properties Company, priority 2001, dated 2003).

Data set [1] can be described thus: Laser stability / photobleaching of dye on laser exposure. Format: physicochemical. The protocol: An 813-nm diode laser source at 1.2W (1.9A) (Opto Power Corp., Tucson, Ariz.) was used to heat a 10-μL volume of near-IR dye at a concentration (0.1 mg/mL for 785 WS, 0.2 mg/mL for SDA 8080) to yield a 35° C. rise in temperature. The laser was manually turned on long enough for the temperature in a 10-μL well to increase by 35° C. (1-3 seconds) and was manually turned off when that level was attained. The temperature data was obtained using a thermocouple in the well, and the transmittance data was obtained via a power meter whose signals were digitized and graphically interpreted.
In another experiment, the 10 μL well was used to see if the dye/surfactant mixture could withstand laser cycling over a period of 30 cycles. The laser power was systematically varied from 60° C. to 94° C., 30 times.
Unlike in Example 8, some dyes and dye/surfactant complexes undergo photodegradation when exposed to laser beam. […] Specifically, in the case of 785 WS/BRIJ-97, the addition of ascorbic acid (typically 5 mg/mL) helped reduce the amount of photobleaching from 100% to 20% after 30 cycles. In some circumstances, rapid/controlled photodegradation may be desired. […] This would allow DNA tags (fluorescent or vis/IR) to be monitored at the end of the PCR reaction.

In a further data set the target is T1, AMPLITAQ DNA polymerase (Thermus aquaticus, UniProt P19821).
T1 construct: purchased Applied Biosystems, Foster City, Calif
Briefly: PCR amplification of PERV protease fragment in the presence of dye/surfactant mixture. Format: biochemical. The conditions noted are these: dye at 0.1 or 0.2 mg/mL, agarose gel. The protocol: Typically, a fresh stock solution of 5 milligrams (mg) of a water-insoluble near-infrared dye (NIR dye) was dissolved in 50 microliters (μL) of dimethylsulfoxide (DMSO) and brought up in water to a final volume of 1 milliliter (mL). This was then diluted out to various concentrations of dye. The diluted dye (typically 0.2 mg/mL) was then added to a surfactant solution (typically 4 wt-%) to form a complex. The complex was added to a PCR reaction.
PCR reactions were set up for a conserved sequence (327 bp) in the protease region of the genome of porcine endogenous retrovirus using a plasmid containing the PERV protease fragment, a forward primer and a reverse primer designed using a primer express program from Applied Biosystems, and AMPLITAQ DNA polymerase cocktail (commercially available from Applied Biosystems, Foster City, Calif.) and cycled in a thermocycler (9700, Applied Biosystems). The PCR reactions were typically carried out in 25-μL volumes. The NIR dye/surfactant mixture was added to the PCR cocktail to give the desired concentration of dye and surfactant in a total volume of 25 μL. […]
In order to find out the optimum concentration of surfactant for PCR with NIR dye (785 WS and SDA 8080), the surfactant concentration in PCR reaction was varied from 0.1 wt-% to 4 wt-%. The PCR product formed was quantitated using DNA 7500 Labchip kit in Agilent 2100 Bioanalyzer (Agilent Inc, Paloalto, Calif.). […]
A variety of dyes (NIR dyes such as IR782, IR768, SDA 2141, SDA8327, IR 830 WS, fluorescent dyes like oligreen and visible dyes like dichlorophenol, indophenol, saffranin, crystal violet, and commercially available food coloring) at typical concentrations of 0.1 or 0.2 mg/mL were allowed to interact with 4 wt-% PLURONIC F127 and each mixture was added to the PCR cocktail. The reaction was set up to amplify PERV protease fragment as described in Example 2 and the products of the reaction were analyzed by agarose gel electrophoresis.

T1 sequence (P19821 whole entry): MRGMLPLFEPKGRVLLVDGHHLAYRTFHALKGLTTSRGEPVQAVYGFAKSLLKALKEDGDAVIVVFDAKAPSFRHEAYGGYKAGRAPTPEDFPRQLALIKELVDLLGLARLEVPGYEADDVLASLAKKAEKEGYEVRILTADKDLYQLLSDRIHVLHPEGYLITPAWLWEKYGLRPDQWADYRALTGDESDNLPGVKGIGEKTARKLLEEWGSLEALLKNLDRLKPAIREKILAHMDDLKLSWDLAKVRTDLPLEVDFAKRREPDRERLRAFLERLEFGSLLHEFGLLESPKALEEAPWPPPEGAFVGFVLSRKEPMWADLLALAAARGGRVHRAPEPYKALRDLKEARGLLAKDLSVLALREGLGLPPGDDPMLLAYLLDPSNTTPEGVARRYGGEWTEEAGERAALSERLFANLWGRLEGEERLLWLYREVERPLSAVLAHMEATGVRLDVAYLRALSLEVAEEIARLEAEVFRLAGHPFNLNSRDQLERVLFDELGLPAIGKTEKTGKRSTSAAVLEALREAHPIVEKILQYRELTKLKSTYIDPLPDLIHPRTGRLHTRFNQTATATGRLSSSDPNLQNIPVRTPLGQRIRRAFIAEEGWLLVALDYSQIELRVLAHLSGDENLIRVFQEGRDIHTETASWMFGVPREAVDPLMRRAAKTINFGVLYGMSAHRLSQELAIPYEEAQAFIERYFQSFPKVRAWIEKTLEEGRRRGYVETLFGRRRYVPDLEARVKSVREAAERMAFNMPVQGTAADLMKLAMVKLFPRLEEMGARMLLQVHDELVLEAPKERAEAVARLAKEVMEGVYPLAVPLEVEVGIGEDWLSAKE

On to `O=C1O[C@H]([C@@H](O)CO)C(O)=C1O` [ascorbic acid], for which the amount of photobleaching in data set [1] (785 WS/BRIJ-97 with ascorbic acid (typically 5 mg/mL), after 30 cycles) stood at 20%. Also, the “effect of antioxidant on dye absorbance” value in data set [1] (added to SDA 8080) is “destroyed the absorbance in the visible and near-IR region of the dye”. Besides, the “effect of antioxidant on photobleaching” value in data set [1] (added to virtually any of the surfactants tested with 785 WS) is on record as “reduced photobleaching significantly”.
As to `CN(C)c1ccc(C(=C2C=CC(=[N+](C)C)C=C2)c2ccc(N(C)C)cc2)cc1` [crystal violet], the “effect of dye alone on PCR” value on AMPLITAQ DNA polymerase is reported as “inhibited PCR”.
With `Cc1cc2nc3cc(C)c(N)cc3[n+](-c3ccccc3)c2cc1N.[Cl-]` [saffranin], the “effect of dye alone on PCR” value on AMPLITAQ DNA polymerase is “inhibited PCR”.
Same read-out and setting: the entry for dichlorophenol is “inhibited PCR”.
